# Molecular target: ATP-binding cassette sub-family C member 11 (Homo sapiens) (UniProt Q96J66)
# Experiment: TP_TRANSPORTER: transport into inside-out membrane vesicles in membrane vesicle from MRP8-2-expressing LLC-PK1 cells
# Type: functional, cell membranes
# Chain of ATP-binding cassette sub-family C member 11 (Homo sapiens) (Q96J66 whole entry): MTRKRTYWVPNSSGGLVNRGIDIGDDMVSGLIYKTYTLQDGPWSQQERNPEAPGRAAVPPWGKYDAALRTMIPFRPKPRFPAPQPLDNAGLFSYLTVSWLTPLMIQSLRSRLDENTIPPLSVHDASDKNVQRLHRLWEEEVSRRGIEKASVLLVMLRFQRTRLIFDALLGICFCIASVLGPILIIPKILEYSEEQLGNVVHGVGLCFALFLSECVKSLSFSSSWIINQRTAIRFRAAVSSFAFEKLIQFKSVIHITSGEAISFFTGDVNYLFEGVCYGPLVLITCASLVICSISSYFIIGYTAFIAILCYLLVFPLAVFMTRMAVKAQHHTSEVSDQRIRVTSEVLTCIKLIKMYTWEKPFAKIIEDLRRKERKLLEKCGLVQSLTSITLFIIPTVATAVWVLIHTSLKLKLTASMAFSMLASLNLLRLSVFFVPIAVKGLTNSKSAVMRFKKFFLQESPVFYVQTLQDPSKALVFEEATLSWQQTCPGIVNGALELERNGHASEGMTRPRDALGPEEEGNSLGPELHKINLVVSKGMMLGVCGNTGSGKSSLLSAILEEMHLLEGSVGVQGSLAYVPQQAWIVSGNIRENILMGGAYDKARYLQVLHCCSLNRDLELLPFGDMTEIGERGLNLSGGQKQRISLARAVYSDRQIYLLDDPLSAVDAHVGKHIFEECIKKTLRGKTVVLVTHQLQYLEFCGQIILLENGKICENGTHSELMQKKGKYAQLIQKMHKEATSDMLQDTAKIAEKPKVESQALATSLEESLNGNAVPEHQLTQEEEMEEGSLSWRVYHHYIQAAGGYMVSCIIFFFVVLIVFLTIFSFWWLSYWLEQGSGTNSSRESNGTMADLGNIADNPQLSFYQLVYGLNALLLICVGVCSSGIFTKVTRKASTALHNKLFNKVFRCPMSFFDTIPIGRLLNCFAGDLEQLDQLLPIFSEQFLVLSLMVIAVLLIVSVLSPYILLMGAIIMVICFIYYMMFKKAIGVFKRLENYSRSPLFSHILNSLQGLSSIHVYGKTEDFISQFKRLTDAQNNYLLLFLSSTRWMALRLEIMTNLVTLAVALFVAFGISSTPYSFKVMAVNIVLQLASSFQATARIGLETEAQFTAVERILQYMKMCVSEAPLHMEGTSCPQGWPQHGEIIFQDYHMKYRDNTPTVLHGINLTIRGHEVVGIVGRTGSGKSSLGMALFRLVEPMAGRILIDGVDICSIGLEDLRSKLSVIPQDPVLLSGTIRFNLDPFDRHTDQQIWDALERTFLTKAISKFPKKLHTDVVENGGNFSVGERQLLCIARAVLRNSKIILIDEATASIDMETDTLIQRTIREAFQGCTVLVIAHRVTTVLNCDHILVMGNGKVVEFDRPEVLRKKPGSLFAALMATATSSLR
structure (smiles),measurement,value
O=c1[nH]c(=O)n([C@H]2C[C@H](O)[C@@H](COP(=O)(O)O)O2)cc1F,Activity,substrate []

# — ChEMBL document CHEMBL2073741, “MRP8, ATP-binding cassette C11 (ABCC11), is a cyclic nucleotide efflux pump and a resistance factor for fluoropyrimidines 2',3'-dideoxycytidine and 9'-(2'-phosphonylmethoxyethyl)adenine” (J Biol Chem, 2003)
